Like-named read-outs stand apart in the source and are kept apart here.
How the values were obtained:
CD95L [1] = experiment: Activation-induced CD95L expression, semi-quantitative RT-PCR and quantitative PCR, Jurkat cells; assay type: cell-based, human; details: for reduction of CD95L induction, quantitative PCR: plate-bound anti-CD3 (TCR triggering)
Jurkat J16-145 cells [2] = experiment: Activation-induced (PMA or anti-CD3) ROS generation, DCFDA oxidation by FACS; assay type: cell-based, human
Jurkat J16-145 cells [3] = experiment: Activation-induced T cell death (AICD), specific cell death by FSC/SSC, Jurkat cells; assay type: cell-based, human; details: PMA/ionomycin or plate-bound anti-CD3, 24 h
Protocol: (§1) Assessment of cell death. […] Cell death was assessed by a drop in the forward-to-side-scatter (FSC/SSC) profile in comparison to living cells and recalculated to “specific cell death” as described (25).

[4] = system: primary human T cells (day 6 T cells); experiment: Anti-CD3 induced ROS generation (DCFDA) in primary human T cells; assay type: cell-based; details: preactivated primary human T cells (day 6); anti-CD3 30 min
CD95L [5] = experiment: Anti-CD3 induced CD95L expression in primary human T cells (PCR); assay type: cell-based; details: day 6 T cells
[6] = system: primary human T cells (day 6 T cells); experiment: AICD in primary human T cells, specific cell death; assay type: cell-based; details: plate-bound anti-CD3 24 h
Protocol: FIG. 9. Primary human T cells depend on complex I-originated activation-induced ROS for CD95L expression and AICD. […] Cells were stained with DCFDA and MFI was measured by FACS. […] Next, RNA was isolated, reverse-transcribed, and amplified using CD95L- and actin-specific primers. C, T cells were transfected with 900 nM of scrambled- (ctr) or two different NDUFAF1-siRNA oligonucleotides (#1, #2). After 48 h, RNA was isolated, reverse-transcribed, and amplified using NDUFAF1- and actin-specific primers. D, 72 h after transfection with 900 nM of scrambled- (ctr) or NDUFAF1-siRNA oligonucleotides (#1, #2) primary human T were stimulated by plate-bound anti-CD3 antibodies for 30 min and oxidative signal was determined as in (A). […] (ii) For 1 h (F), to detect changes in CD95L expression (left panel semi quantitative PCR; right panel quantitative PCR). (iii) For 24 h (G) to assessed AICD by a drop in FCS/SSC index. Insert show T cells cotreated with or without CD95L neutralizing antibody (results were recalculated to “specific cell death”). H, Schematic diagram of TCR induced oxidative signalling.
Isolation of human peripheral T cells. […]
as §1

CD95 receptor [7] = experiment: Apoptosis induced via direct stimulation of the CD95 receptor, Jurkat cells; assay type: cell-based, human; details: data not shown
CD95 receptor [8] = experiment: Apoptosis induced by direct stimulation of the CD95 receptor, primary T cells; assay type: cell-based, human; details: data not shown
IL-2, IL-4, or TNF-alpha = experiment: Cytokine expression in activated T cells (RT-PCR); assay type: cell-based, human
complex I [9] = details: references 6, 18; cited from earlier work
complex I [10] = details: isolated mitochondria; reference 6; cited from earlier work
Jurkat J16-145 cells [11] = experiment: Cellular ATP determination; assay type: cell-based, human; details: high concentrations of inhibitors, 2 h
[12] = Jurkat J16-145, anti-CD3 or PMA/ionomycin, 1 h

Compound: CN(C)CCCn1cc(C2=C(c3c[nH]c4ccccc34)C(=O)NC2=O)c2ccccc21 [BIM, bisindolylmaleimide I]
- effect on activation-induced CD95L expression (RT-PCR), in words (CD95L [1]): dose dependent inhibition of CD95L expression

Compound: c1ccc2c(c1)[I+]c1ccccc1-2 [DPI]
- effect on PMA-induced ROS generation / oxidative signal, in words (Jurkat J16-145 cells [2]; Jurkat J16-145, PMA 30 min): only a moderate effect

Compound: O=C(CC(=O)C(F)(F)F)c1cccs1 [TTFA, 1,1,1-thenoyl trifluoroacetone]
- effect on activation-induced (TCR- and PMA-induced) ROS generation, in words (Jurkat J16-145 cells [2]): no effect or increased the oxidative signal

Compound: COc1cc(C(C)=O)ccc1O [apocynin]
- effect on PMA-induced ROS generation / oxidative signal, in words (Jurkat J16-145 cells [2]; Jurkat J16-145, PMA 30 min): only a moderate effect

Compound: CN(C)C(=N)N=C(N)N [metformin]
- effect on PMA-induced ROS generation / oxidative signal, in words (Jurkat J16-145 cells [2]): diminished oxidative signal
- reduction of CD95L expression, quantitative PCR (CD95L [1]; Jurkat J16-145, PMA/ionomycin, 1 h): 50%
- effect on activation-induced CD95L expression (RT-PCR), in words (CD95L [1]; [12]): inhibition of CD95L expression
- reduction of CD95L induction, quantitative PCR (CD95L [1]; Jurkat J16-145, 1 h): up to 80%
- effect on AICD, in words (Jurkat J16-145 cells [3]): drastically reduced AICD
- effect on activation-induced (anti-CD3) oxidative signal, in words [4]: inhibits the anti-CD3 induced oxidative signal
- inhibition of induction of CD95L expression (CD95L [5]; plate-bound anti-CD3 1 h): up to 70%
- effect on AICD (cell death), in words [6]: nearly completely inhibited
- apoptosis induced via direct stimulation of the CD95 receptor (CD95 receptor [7]): not affected
- apoptosis induced by direct stimulation of the CD95 receptor (CD95 receptor [8]): not affected
- expression of cytokines such as IL-2, IL-4, or TNF-alpha (IL-2, IL-4, or TNF-alpha): can be reduced
- inhibition of complex I (complex I [9]): mildly inhibits
- inhibition of complex I-induced ROS production (complex I [10]): efficiently inhibit

Compound: CC[C@H]1/C=C/C=C/C[C@@H](C)[C@H](O)[C@@](C)(O)C(=O)[C@@H](C)[C@H](O)[C@@H](C)C(=O)[C@@H](C)[C@H](O)[C@@H](C)/C=C/C(=O)O[C@@H]2[C@H](C)[C@H](CC1)O[C@]1(CC[C@H](C)[C@H](C[C@@H](C)O)O1)[C@H]2C [oligomycin]
- effect on activation-induced (TCR- and PMA-induced) ROS generation, in words (Jurkat J16-145 cells [2]; Jurkat J16-145, anti-CD3 or PMA, 30 min): no effect or increased the oxidative signal
- reduction of CD95L induction, quantitative PCR (CD95L [1]; Jurkat J16-145, 1 h): no effect
- ATP depletion compared to rotenone and piericidin A (Jurkat J16-145 cells [11]): more efficient ATP depletion

Compound: C/C=C(\C)[C@H](O)[C@H](C)/C=C(C)/C=C/C/C(C)=C/Cc1nc(OC)c(OC)c(O)c1C [piericidin A]
- effect on activation-induced (TCR- and PMA-induced) ROS generation, in words (Jurkat J16-145 cells [2]): able to inhibit
- effect on activation-induced CD95L expression (RT-PCR), in words (CD95L [1]; [12]): abolished CD95L transcription almost completely

Compound: C=C(C)[C@H]1Cc2c(ccc3c2O[C@@H]2COc4cc(OC)c(OC)cc4[C@@H]2C3=O)O1 [rotenone]
- effect on activation-induced (TCR- and PMA-induced) ROS generation, in words (Jurkat J16-145 cells [2]): able to inhibit
- effect on activation-induced CD95L expression (RT-PCR), in words (CD95L [1]; [12]): abolished CD95L transcription almost completely
- reduction of CD95L induction, quantitative PCR (CD95L [1]; Jurkat J16-145, 1 h): more than 80%
- effect on activation-induced (anti-CD3) oxidative signal, in words [4]: exclusively inhibited
- effect on CD95L expression, in words (CD95L [5]; anti-CD3 1 h): exclusively inhibited
